Experimental data: patent US9637491B2, “Pyrazolo[4,3-D]pyrimidines as kinase inhibitors” (Origenis GmbH, priority 2012, dated 2017)

Biological target: T1, SYK kinase (Homo sapiens, UniProt P43405)
T1 construct: purchased Invitrogen, Carlsbad
Experiment: SYK assay (OMNIA Kinase Assay, Invitrogen)
Assay type: biochemical
Settings: SYK Activities; 1 mM ATP, 10 μM Omnia Peptide Substrate Tyr 7, 30° C.
Procedure, shortened: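 Continuous-read fluorescence kinase assay: SOX-labelled Tyr 7 peptide (10 μM) with 1 mM ATP and 0.2 mM DTT, 30° C, reaction started by adding SYK. Fluorescence (ex 360/em 485 nm) read every 30 s for 30 min. IC50 from sigmoidal fit of reaction velocity versus inhibitor concentration.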

Structure (SMILES) | IC50
CN1CCC(n2cc(Nc3nc(-c4ccco4)nc4cn[nH]c34)cn2)CC1 [Example 198, 5-(furan-2-yl)-N-(1-(1-methylpiperidin-4-yl)-1H-pyrazol-4-yl)-1H-pyrazolo[4,3-d]pyrimidin-7-amine] | < 10 nM
COCCn1cc(Nc2nc(-c3ccoc3)nc3cn[nH]c23)cn1 [Example 199, 5-(furan-3-yl)-N-(1-(2-methoxyethyl)-1H-pyrazol-4-yl)-1H-pyrazolo[4,3-d]pyrimidin-7-amine] | 100 to 1000 nM
CC(=O)N1CCC(n2cc(Nc3nc(-c4ccoc4)nc4cn[nH]c34)cn2)CC1 [Example 200, 1-(4-(4-((5-(furan-3-yl)-1H-pyrazolo[4,3-d]pyrimidin-7-yl)amino)-1H-pyrazol-1-yl)piperidin-1-yl)ethan-1-one] | < 10 nM
O=C(c1ccc(Nc2nc(-c3ccoc3)nc3cn[nH]c23)cc1F)N1CCOCC1 [Example 201, (2-fluoro-4-((5-(furan-3-yl)-1H-pyrazolo[4,3-d]pyrimidin-7-yl)amino)phenyl)(morpholino)methanone] | 100 to 1000 nM
CN1CCC(n2cc(Nc3nc(-c4ccoc4)nc4cn[nH]c34)cn2)CC1 [Example 202, 5-(furan-3-yl)-N-(1-(1-methylpiperidin-4-yl)-1H-pyrazol-4-yl)-1H-pyrazolo[4,3-d]pyrimidin-7-amine] | < 10 nM
CC(C)(C#N)n1cc(Nc2nc(-c3ccoc3)nc3cn[nH]c23)cn1 [Example 203, 2-(4-((5-(furan-3-yl)-1H-pyrazolo[4,3-d]pyrimidin-7-yl)amino)-1H-pyrazol-1-yl)-2-methylpropanenitrile] | 100 to 1000 nM
CC(=O)N1CCC(n2cc(Nc3nc(C4CC4)nc4cn[nH]c34)cn2)CC1 [Example 204, 1-(4-(4-((5-cyclopropyl-1H-pyrazolo[4,3-d]pyrimidin-7-yl)amino)-1H-pyrazol-1-yl)piperidin-1-yl)ethan-1-one] | < 10 nM
CC(=O)N1CCC(n2cc(Nc3nc(C4CCC4)nc4cn[nH]c34)cn2)CC1 [Example 205, 1-(4-(4-((5-cyclobutyl-1H-pyrazolo[4,3-d]pyrimidin-7-yl)amino)-1H-pyrazol-1-yl)piperidin-1-yl)ethan-1-one] | 10 to 100 nM
CN1CCC(n2cc(Nc3nc(C4CCC4)nc4cn[nH]c34)cn2)CC1 [Example 206, 5-cyclobutyl-N-(1-(1-methylpiperidin-4-yl)-1H-pyrazol-4-yl)-1H-pyrazolo[4,3-d]pyrimidin-7-amine] | < 10 nM
CN1CCC(n2cc(Nc3nc(C4CC4)nc4cn[nH]c34)cn2)CC1 [Example 207, 5-cyclopropyl-N-(1-(1-methylpiperidin-4-yl)-1H-pyrazol-4-yl)-1H-pyrazolo[4,3-d]pyrimidin-7-amine] | 10 to 100 nM
O=C(c1ccc(Nc2nc(C3CC3)nc3cn[nH]c23)cc1F)N1CCOCC1 [Example 208, (4-((5-cyclopropyl-1H-pyrazolo[4,3-d]pyrimidin-7-yl)amino)-2-fluorophenyl)(morpholino)methanone] | 100 to 1000 nM
CC(C)(C#N)n1cc(Nc2nc(-c3ccco3)nc3cn[nH]c23)cn1 [Example 211, 2-(4-((5-(furan-2-yl)-1H-pyrazolo[4,3-d]pyrimidin-7-yl)amino)-1H-pyrazol-1-yl)-2-methylpropanenitrile] | 100 to 1000 nM
CC(C)(C)n1cc(Nc2nc(-c3ccco3)nc3cn[nH]c23)cn1 [Example 212, N-(1-(tert-butyl)-1H-pyrazol-4-yl)-5-(furan-2-yl)-1H-pyrazolo[4,3-d]pyrimidin-7-amine] | 10 to 100 nM
N#CC1(n2cc(Nc3nc(-c4ccco4)nc4cn[nH]c34)cn2)CCCCC1 [Example 213, 1-(4-((5-(furan-2-yl)-1H-pyrazolo[4,3-d]pyrimidin-7-yl)amino)-1H-pyrazol-1-yl)cyclohexanecarbonitrile] | 100 to 1000 nM
CC(C)n1cc(Nc2nc(-c3ccco3)nc3cn[nH]c23)cn1 [Example 214, 5-(furan-2-yl)-N-(1-isopropyl-1H-pyrazol-4-yl)-1H-pyrazolo[4,3-d]pyrimidin-7-amine] | < 10 nM
COCCCn1cc(Nc2nc(-c3ccco3)nc3cn[nH]c23)cn1 [Example 215, 5-(furan-2-yl)-N-(1-(3-methoxypropyl)-1H-pyrazol-4-yl)-1H-pyrazolo[4,3-d]pyrimidin-7-amine] | < 10 nM
COC(=O)c1cccc(-c2nc(Nc3cnn(C4CCOCC4)c3)c3[nH]ncc3n2)c1 [Example 216, methyl 3-(7-((1-(tetrahydro-2H-pyran-4-yl)-1H-pyrazol-4-yl)amino)-1H-pyrazolo[4,3-d]pyrimidin-5-yl)benzoate] | 10 to 100 nM
O=C(O)c1cccc(-c2nc(Nc3cnn(C4CCOCC4)c3)c3[nH]ncc3n2)c1 [Example 217, 3-(7-((1-(tetrahydro-2H-pyran-4-yl)-1H-pyrazol-4-yl)amino)-1H-pyrazolo[4,3-d]pyrimidin-5-yl)benzoic acid] | 100 to 1000 nM
CC(C)(C)n1cc(Nc2nc(-c3ccoc3)nc3cn[nH]c23)cn1 [Example 218, N-(1-(tert-butyl)-1H-pyrazol-4-yl)-5-(furan-3-yl)-1H-pyrazolo[4,3-d]pyrimidin-7-amine] | 10 to 100 nM
N#CC1(n2cc(Nc3nc(-c4ccoc4)nc4cn[nH]c34)cn2)CCCCC1 [Example 219, 1-(4-((5-(furan-3-yl)-1H-pyrazolo[4,3-d]pyrimidin-7-yl)amino)-1H-pyrazol-1-yl)cyclohexanecarbonitrile] | 100 to 1000 nM
CC(C)n1cc(Nc2nc(-c3ccoc3)nc3cn[nH]c23)cn1 [Example 220, 5-(furan-3-yl)-N-(1-isopropyl-1H-pyrazol-4-yl)-1H-pyrazolo[4,3-d]pyrimidin-7-amine] | < 10 nM
COCCCn1cc(Nc2nc(-c3ccoc3)nc3cn[nH]c23)cn1 [Example 221, 5-(furan-3-yl)-N-(1-(3-methoxypropyl)-1H-pyrazol-4-yl)-1H-pyrazolo[4,3-d]pyrimidin-7-amine] | < 10 nM
CC(C)(C)n1cc(Nc2nc(C3CCC3)nc3cn[nH]c23)cn1 [Example 222, N-(1-(tert-butyl)-1H-pyrazol-4-yl)-5-cyclobutyl-1H-pyrazolo[4,3-d]pyrimidin-7-amine] | 10 to 100 nM
CC(C)n1cc(Nc2nc(C3CCC3)nc3cn[nH]c23)cn1 [Example 223, 5-cyclobutyl-N-(1-isopropyl-1H-pyrazol-4-yl)-1H-pyrazolo[4,3-d]pyrimidin-7-amine] | < 10 nM
COCCCn1cc(Nc2nc(C3CCC3)nc3cn[nH]c23)cn1 [Example 224, 5-cyclobutyl-N-(1-(3-methoxypropyl)-1H-pyrazol-4-yl)-1H-pyrazolo[4,3-d]pyrimidin-7-amine] | 10 to 100 nM
CC(C)(C#N)n1cc(Nc2nc(C3CCC3)nc3cn[nH]c23)cn1 [Example 225, 2-(4-((5-cyclobutyl-1H-pyrazolo[4,3-d]pyrimidin-7-yl)amino)-1H-pyrazol-1-yl)-2-methylpropanenitrile] | 100 to 1000 nM
COCCn1ccc(Nc2nc(C3CCC3)nc3cn[nH]c23)cc1=O [Example 226, 4-((5-cyclobutyl-1H-pyrazolo[4,3-d]pyrimidin-7-yl)amino)-1-(2-methoxyethyl)pyridin-2(1H)-one] | 100 to 1000 nM
CC(C)(C)n1cc(Nc2nc(C3CC3)nc3cn[nH]c23)cn1 [Example 228, N-(1-(tert-butyl)-1H-pyrazol-4-yl)-5-cyclopropyl-1H-pyrazolo[4,3-d]pyrimidin-7-amine] | 10 to 100 nM
